Measurements from patent publication US9492471B2, “Methods of treating a disease or disorder associated with Bruton'S Tyrosine Kinase” (Celgene Avilomics Research, Inc., priority 2013, dated 2016).
Read-outs that look alike come from different tables or passages of the source.

How the values were obtained:
Assay in all cases: HotSpot kinase profiling
Format in all cases: biochemical
CAMK2b = biological target: T1, CAMK2b (Homo sapiens, UniProt Q13554)
T1 construct: purchased Reaction Biology Corp
Outline: (§1)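 Activity is measured by radiolabel transfer captured on P81 filters after a 2 h room-temperature reaction of kinase, substrate and cofactors. Values are percent inhibition against DMSO.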

CAMK1a = biological target: T2, CAMK1a (Homo sapiens, UniProt Q14012)
T2 construct: purchased Reaction Biology Corp
Outline: as §1

RSK1 = biological target: T3, RSK1 (Homo sapiens, UniProt Q15418)
T3 construct: purchased Reaction Biology Corp
Outline: as §1

FRK/PTK5 = biological target: T4, FRK/PTK5 (Homo sapiens, UniProt P42685)
T4 construct: purchased Reaction Biology Corp
Outline: as §1

PLK3 = biological target: T5, PLK3 (Homo sapiens, UniProt Q9H4B4)
T5 construct: purchased Reaction Biology Corp
Outline: as §1

FER = biological target: T6, FER (Homo sapiens, UniProt P16591)
T6 construct: purchased Reaction Biology Corp
Outline: as §1

PKCzeta = biological target: T7, PKCzeta (Homo sapiens, UniProt Q05513)
T7 construct: purchased Reaction Biology Corp
T7 sequence (Q05513 1-592): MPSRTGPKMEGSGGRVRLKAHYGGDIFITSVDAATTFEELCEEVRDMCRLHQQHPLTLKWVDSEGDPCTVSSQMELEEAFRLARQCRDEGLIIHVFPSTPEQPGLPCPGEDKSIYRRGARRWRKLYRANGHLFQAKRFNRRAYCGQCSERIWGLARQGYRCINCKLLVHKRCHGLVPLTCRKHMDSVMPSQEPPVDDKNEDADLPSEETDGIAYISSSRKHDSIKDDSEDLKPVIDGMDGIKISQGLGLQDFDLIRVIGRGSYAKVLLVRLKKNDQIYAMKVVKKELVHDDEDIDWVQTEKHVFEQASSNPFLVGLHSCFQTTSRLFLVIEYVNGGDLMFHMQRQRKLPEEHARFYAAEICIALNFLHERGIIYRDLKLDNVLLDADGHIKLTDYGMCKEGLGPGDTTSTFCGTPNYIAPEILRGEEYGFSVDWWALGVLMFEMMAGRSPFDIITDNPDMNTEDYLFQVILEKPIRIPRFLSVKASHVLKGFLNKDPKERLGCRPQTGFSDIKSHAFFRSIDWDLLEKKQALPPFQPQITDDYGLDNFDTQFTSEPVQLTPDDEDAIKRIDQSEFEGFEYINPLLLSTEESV
Outline: as §1

DYRK1B = biological target: T8, DYRK1B (Homo sapiens, UniProt Q9Y463)
T8 construct: purchased Reaction Biology Corp
Outline: as §1

BRSK2 = biological target: T9, BRSK2 (Homo sapiens, UniProt Q8IWQ3)
T9 construct: purchased Reaction Biology Corp
T9 sequence (Q8IWQ3 1-736): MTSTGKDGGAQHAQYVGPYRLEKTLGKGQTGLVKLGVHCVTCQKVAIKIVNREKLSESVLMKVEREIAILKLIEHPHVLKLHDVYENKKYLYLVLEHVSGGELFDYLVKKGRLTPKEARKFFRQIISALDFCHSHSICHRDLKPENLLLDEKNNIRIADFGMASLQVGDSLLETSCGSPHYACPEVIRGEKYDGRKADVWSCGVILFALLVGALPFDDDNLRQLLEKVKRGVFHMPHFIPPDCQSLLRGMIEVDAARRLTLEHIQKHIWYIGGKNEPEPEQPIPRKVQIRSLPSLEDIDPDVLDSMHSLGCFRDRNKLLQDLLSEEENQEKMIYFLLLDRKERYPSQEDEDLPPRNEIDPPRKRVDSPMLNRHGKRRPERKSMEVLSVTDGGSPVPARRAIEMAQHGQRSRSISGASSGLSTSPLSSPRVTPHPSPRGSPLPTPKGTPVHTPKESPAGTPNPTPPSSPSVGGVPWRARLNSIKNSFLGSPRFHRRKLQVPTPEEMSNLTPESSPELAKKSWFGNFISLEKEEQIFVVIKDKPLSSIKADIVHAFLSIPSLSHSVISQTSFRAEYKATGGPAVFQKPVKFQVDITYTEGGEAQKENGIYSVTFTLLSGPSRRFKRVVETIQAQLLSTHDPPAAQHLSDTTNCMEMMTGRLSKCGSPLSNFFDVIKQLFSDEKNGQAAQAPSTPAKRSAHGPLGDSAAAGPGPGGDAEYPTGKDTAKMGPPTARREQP
Outline: as §1

FLT1/VEGFR1 = biological target: T10, FLT1/VEGFR1 (Homo sapiens, UniProt P17948)
T10 construct: purchased Reaction Biology Corp
Outline: as §1

[1] = read-out: % Enzyme Activity (relative to DMSO controls) Run 1
[2] = read-out: % Enzyme Activity (relative to DMSO controls) Run 2

T8 sequence (Q9Y463 whole entry): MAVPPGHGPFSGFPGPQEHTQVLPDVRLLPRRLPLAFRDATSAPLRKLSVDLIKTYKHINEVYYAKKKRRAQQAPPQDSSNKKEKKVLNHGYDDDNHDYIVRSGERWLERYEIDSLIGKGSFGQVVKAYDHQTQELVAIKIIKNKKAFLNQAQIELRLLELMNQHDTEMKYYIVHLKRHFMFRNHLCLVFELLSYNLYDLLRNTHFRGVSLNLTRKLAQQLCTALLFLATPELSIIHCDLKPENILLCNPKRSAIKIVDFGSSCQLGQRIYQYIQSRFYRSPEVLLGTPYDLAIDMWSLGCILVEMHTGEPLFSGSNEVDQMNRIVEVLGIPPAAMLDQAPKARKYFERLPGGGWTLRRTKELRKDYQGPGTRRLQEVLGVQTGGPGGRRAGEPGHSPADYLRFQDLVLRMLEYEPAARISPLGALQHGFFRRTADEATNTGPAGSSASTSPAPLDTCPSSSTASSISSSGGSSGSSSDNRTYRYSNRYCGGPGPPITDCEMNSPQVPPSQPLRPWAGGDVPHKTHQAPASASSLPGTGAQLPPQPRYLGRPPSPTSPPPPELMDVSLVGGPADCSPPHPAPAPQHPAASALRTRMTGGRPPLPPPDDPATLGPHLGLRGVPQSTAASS
T2 sequence (Q14012 whole entry): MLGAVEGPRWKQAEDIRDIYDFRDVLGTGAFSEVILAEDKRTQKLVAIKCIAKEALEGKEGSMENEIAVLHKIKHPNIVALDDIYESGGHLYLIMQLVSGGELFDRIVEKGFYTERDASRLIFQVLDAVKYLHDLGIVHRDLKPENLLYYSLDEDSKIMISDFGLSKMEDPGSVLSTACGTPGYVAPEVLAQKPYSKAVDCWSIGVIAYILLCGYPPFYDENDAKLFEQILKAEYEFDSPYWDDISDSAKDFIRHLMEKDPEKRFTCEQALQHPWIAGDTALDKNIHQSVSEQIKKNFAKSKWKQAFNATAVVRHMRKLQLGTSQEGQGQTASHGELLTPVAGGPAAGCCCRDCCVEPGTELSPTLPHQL
T1 sequence (Q13554 whole entry): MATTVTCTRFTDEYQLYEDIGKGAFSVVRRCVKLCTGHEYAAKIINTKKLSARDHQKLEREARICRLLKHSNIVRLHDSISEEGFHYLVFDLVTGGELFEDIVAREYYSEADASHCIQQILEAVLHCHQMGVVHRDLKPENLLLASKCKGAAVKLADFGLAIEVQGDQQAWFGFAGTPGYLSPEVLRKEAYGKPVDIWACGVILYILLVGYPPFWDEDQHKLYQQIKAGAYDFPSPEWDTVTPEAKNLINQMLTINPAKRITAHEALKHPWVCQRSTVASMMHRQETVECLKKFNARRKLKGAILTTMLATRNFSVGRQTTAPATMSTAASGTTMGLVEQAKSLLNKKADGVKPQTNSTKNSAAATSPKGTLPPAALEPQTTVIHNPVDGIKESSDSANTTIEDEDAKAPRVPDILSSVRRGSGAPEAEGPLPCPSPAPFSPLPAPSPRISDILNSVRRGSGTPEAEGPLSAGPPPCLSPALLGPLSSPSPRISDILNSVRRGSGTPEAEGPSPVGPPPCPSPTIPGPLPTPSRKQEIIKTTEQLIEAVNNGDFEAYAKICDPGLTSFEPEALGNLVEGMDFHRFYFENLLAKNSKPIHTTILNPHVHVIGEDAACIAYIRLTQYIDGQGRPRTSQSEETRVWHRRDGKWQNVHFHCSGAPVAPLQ
T3 sequence (Q15418 whole entry): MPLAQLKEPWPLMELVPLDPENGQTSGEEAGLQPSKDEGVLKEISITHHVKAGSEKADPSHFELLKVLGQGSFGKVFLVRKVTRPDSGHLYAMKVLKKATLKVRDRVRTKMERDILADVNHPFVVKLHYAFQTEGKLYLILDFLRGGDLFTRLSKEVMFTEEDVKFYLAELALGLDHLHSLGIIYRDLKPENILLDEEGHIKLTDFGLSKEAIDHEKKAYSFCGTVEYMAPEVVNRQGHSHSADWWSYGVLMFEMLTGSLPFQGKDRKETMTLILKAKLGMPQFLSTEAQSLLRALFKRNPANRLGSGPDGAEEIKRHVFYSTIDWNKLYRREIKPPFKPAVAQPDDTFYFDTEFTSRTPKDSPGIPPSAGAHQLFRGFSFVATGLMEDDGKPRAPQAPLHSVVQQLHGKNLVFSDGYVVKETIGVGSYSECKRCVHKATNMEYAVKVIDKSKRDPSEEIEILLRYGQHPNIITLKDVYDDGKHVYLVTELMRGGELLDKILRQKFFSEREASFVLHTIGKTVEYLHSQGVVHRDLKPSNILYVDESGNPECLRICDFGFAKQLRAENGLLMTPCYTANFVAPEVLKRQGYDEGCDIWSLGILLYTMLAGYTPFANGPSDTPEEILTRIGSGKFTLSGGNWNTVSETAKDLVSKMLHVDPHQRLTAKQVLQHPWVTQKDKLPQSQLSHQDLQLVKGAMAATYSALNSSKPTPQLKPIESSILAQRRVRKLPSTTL
T5 sequence (Q9H4B4 whole entry): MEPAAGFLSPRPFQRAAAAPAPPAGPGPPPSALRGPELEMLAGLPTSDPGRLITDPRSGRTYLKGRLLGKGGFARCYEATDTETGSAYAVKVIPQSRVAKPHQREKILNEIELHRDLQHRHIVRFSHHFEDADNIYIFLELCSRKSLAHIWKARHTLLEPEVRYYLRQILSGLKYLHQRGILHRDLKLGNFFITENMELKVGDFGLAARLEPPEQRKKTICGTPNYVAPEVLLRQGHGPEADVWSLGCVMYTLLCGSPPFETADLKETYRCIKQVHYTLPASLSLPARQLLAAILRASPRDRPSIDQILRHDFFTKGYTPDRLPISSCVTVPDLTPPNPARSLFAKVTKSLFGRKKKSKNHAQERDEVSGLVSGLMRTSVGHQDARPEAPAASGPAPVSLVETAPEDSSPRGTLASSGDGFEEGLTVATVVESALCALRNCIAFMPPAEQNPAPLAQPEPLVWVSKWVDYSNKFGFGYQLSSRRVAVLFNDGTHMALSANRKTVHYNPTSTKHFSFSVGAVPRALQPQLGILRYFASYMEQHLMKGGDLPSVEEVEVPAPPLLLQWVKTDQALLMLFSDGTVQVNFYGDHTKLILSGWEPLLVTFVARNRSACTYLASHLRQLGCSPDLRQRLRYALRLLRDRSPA
T4 sequence (P42685 whole entry): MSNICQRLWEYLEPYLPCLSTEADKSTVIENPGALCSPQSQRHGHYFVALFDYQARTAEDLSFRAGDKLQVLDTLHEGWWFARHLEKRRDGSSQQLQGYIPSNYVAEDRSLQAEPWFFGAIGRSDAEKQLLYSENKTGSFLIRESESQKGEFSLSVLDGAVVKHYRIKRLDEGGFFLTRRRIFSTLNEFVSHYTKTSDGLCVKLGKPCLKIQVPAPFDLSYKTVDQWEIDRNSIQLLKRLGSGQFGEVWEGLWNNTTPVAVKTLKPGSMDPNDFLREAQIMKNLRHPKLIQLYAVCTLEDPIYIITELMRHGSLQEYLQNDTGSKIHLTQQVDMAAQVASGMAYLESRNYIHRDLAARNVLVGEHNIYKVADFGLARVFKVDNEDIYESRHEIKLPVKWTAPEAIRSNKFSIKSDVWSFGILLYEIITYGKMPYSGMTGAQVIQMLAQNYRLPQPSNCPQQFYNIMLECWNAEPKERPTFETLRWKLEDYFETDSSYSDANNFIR
T6 sequence (P16591 whole entry): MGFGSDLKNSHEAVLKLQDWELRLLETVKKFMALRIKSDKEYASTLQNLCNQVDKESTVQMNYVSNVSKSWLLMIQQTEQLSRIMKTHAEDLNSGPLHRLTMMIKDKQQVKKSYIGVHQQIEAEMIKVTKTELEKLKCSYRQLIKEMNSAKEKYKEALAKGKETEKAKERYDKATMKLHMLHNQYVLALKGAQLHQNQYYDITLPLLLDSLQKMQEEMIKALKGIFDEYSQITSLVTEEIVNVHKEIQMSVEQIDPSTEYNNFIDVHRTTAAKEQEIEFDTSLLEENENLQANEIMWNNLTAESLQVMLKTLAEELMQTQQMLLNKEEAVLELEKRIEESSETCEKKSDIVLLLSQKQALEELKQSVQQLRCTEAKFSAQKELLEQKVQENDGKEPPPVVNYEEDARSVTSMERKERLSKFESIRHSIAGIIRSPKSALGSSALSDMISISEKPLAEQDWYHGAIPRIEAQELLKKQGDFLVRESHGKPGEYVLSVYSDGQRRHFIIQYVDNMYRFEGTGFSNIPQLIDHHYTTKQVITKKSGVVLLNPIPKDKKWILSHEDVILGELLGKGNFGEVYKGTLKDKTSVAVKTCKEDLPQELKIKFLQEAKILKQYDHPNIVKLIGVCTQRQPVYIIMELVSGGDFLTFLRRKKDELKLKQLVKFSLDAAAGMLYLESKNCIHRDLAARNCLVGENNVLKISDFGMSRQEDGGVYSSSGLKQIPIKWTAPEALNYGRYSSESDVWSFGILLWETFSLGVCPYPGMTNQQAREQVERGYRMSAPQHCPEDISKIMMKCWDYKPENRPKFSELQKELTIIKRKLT

SMILES: C=CC(=O)Nc1cccc(Nc2nc(Nc3ccc(OCCOC)c(F)c3)ncc2F)c1 [Compound 2]
- inhibition at 3 µM (CAMK2b): 3.89%
- remaining activity at 3 µM (CAMK2b; [1]): 96.4%
- remaining activity at 3 µM (CAMK2b; [2]): 95.8%
- inhibition at 3 µM (CAMK1a): -10.4%
- remaining activity at 3 µM (CAMK1a; [1]): 109%
- remaining activity at 3 µM (CAMK1a; [2]): 112%
- inhibition at 3 µM (RSK1): 27.1%
- remaining activity at 3 µM (RSK1; [1]): 73.3%
- remaining activity at 3 µM (RSK1; [2]): 72.5%
- inhibition at 3 µM (FRK/PTK5): 0.75%
- remaining activity at 3 µM (FRK/PTK5; [1]): 101%
- remaining activity at 3 µM (FRK/PTK5; [2]): 98%
- inhibition at 3 µM (PLK3): 1.28%
- remaining activity at 3 µM (PLK3; [1]): 97%
- remaining activity at 3 µM (PLK3; [2]): 100%
- inhibition at 3 µM (FER): 11.8%
- remaining activity at 3 µM (FER; [1]): 88.1%
- remaining activity at 3 µM (FER; [2]): 88.3%
- inhibition at 3 µM (PKCzeta): 2.52%
- remaining activity at 3 µM (PKCzeta; [1]): 99.8%
- remaining activity at 3 µM (PKCzeta; [2]): 95.2%
- inhibition at 3 µM (DYRK1B): 20.2%
- remaining activity at 3 µM (DYRK1B; [1]): 78.6%
- remaining activity at 3 µM (DYRK1B; [2]): 80.9%
- inhibition at 3 µM (BRSK2): 8.66%
- remaining activity at 3 µM (BRSK2; [1]): 91%
- remaining activity at 3 µM (BRSK2; [2]): 91.7%
- inhibition at 3 µM (FLT1/VEGFR1): 18.6%
- remaining activity at 3 µM (FLT1/VEGFR1; [1]): 83.6%
- remaining activity at 3 µM (FLT1/VEGFR1; [2]): 79.2%
